Several values for one entry are separate records, joined by “and”; a condition that tells them apart may be missing. Equal values may be shown once.
Experiments:
[1] = Pharmacokinetic evaluation in male CD2F1 mice; format: in vivo, mouse
Method: To determine the pharmacokinetics of 2-OMe antimycin A1 in male CD2F1 mice, groups of three were dosed either intravenously (tail vein) or intraperitoneally with 2-OMe antimycin A1 (20 mg/kg) in a vehicle of Cremaphor (5%) and ethanol (5%) in 0.9% saline. For both dosing routes, the volume administered was 5 ml/kg body weight. At various times, samples were collected by cardiac puncture into tubes containing NaF/EDTA (dry powders).
Pharmacokinetic values were derived with WinNonlin® software (Mountain View, Calif.).

Bcl-xL(ΔC) WT = target: T1, Bcl-xL(ΔC) WT (Homo sapiens, UniProt Q07817); assay: Pore-forming activity, calcein release from liposomes; format: biochemical
T1 construct: inferred from Ni-NTA purification and the pET22b(+) NdeI/XhoI cloning); made in house; host or cells: Escherichia coli BL21(DE3) carrying pUB520
T1 sequence (Q07817 1-211 limits assumed, stated change not applied): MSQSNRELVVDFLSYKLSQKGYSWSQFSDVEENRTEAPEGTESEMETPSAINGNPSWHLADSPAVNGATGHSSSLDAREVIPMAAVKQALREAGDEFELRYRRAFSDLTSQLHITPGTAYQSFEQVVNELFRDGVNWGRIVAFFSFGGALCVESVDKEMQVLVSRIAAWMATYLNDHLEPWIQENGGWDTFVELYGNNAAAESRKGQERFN
Procedure, shortened: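 Bcl-xL(ΔC) protein (500 nM) was added to calcein-loaded 60:40 DOPC/DOPG LUVs (60 μM lipid) in 100 mM KCl, 10 mM KOAc, pH 5.0. Fluorescence was read at 490/520 nm, with kinetics at 37 °C and dose responses at room temperature. BH3 peptides were preincubated 5 min with protein; release was expressed as % of Triton X-100 lysis.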

TABX1A cells = assay: Intracellular ATP, luciferase-luciferin assay; format: cell-based, murine; details: 2 μg/ml plus fructose 50 mM
Method: (§1) Fructose is a substrate that provides ATP production through the glycolytic pathway. After a 30-60 minute incubation, cells were harvested and intracellular ATP concentrations were determined by an ATP-dependent luciferase-luciferin assay (Sigma, St. Louis, Mo.). The ATP concentrations in DMSO-treated cells were taken as 100%. In parallel experiments, cell viability was determined after six hours.

TABX2S cells = assay: Intracellular ATP, luciferase-luciferin assay; format: cell-based, murine; details: 2 μg/ml plus fructose 50 mM
Method: as §1

[2] = target: T2, recombinant human Bcl-2ΔC22 (Homo sapiens, UniProt P10415); assay: Antimycin A3 fluorescence binding and competition assay; details: 2 μM each, Bcl-2 3 μM, 7.5 minutes, 22.5° C.
T2 construct: poly-His (N); made in house
T2 sequence (P10415 1-217 limits assumed, stated change not applied): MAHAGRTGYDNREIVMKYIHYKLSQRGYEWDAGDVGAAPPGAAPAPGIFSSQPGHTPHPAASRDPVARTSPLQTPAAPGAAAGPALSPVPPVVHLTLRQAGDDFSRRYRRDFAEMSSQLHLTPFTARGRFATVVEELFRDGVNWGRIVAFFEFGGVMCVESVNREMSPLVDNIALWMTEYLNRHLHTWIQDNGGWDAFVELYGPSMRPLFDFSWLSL
Method: In this assay, 0 to 5 μM antimycin A3 (Sigma Chemical Co., St. Louis, Mo.) was added to a physiological buffer (50 mM Tris-HCl pH 8.0, 0.2 M NaCl, 2 mM EDTA, 0.5% v/v glycerol) containing recombinant Bcl-2 or BCl-xL protein under conditions that permitted antimycin A3 to bind to the BH3-binding domain of Bcl-2 or BCl-xL (22.5° C. on a Hitachi F-2500 fluorescence spectrofluorimeter equipped with a thermostatted cell holder). […] The excitation wavelength was 335 nm, and the maximum emission wavelength for antimycin A3 was 428 nm with a slit width of 10 nm. The samples were mixed in a quartz cuvette and checked for inner filter effect over the concentration range of antimycin A3 used for this study. Blanks containing antimycin A3 at the same concentration as the experimental samples were used as controls in all measurements and necessary background corrections were made.
Recombinant human Bcl-2ΔC22 (a recombinant human Bcl-2 with a delection of 22 amino acid residue membrane anchor sequence from the carboxyl end) and mouse Bcl-xLΔC20 (a recombinant murine BCl-xL with a delection of the 20 amino acid residue membrane anchor sequence from the carboxyl end) fused with poly-His at the N-terminus were chromatographically purified to homogeneity. The concentrations of antimycin A3 and stock solutions of recombinant proteins were quantitated using an extinction coefficient of 7.24/mM/cm at 320 nm and by Bradford assay, respectively. The stoichiometric ratio of antimycin A3 and Bcl-2 producing the maximal change in antimycin A3 fluorescence was determined with incremental addition of antimycin A3 to a 1.98 μM solution of recombinant Bcl-2 in a volume of 2.1 milliliters. […] For peptide displacement experiments, a solution of 2 μM antimycin A3 and 3 μM Bcl-2 was allowed to reach binding equilibrium at 4° C. prior to fluorescence measurements. Native peptide corresponding to the BH3 domain of Bak (72-[…]87 (SEQ ID NO:1)) or a mutant peptide with a single amino acid change (Leu78Ala-BH3) was added to the solution and the fluorescence measurements were repeated. […]

With `CCCCCC[C@H]1C(=O)O[C@H](C)[C@H](NC(=O)c2cccc(NC=O)c2OC)C(=O)O[C@@H](C)[C@@H]1OC(=O)CC(C)C` [2-OMeA1, 2-methoxy antimycin A1] the AUC ([1]; Intraperitoneal dose 20 mg/kg) was 2410 ng·h/mL, the Cmax ([1]; Intraperitoneal dose 20 mg/kg) was 483 ng/mL and the MRT ([1]; Intraperitoneal dose 20 mg/kg) was 474 min. It also gave a T1/2 ([1]; Intraperitoneal dose 20 mg/kg) of 183 min, an AUC ([1]; Intravenous dose 20 mg/kg) of 3720 ng·h/mL and a Cmax ([1]; Intravenous dose 20 mg/kg) of 8000 ng/mL. The MRT ([1]; Intravenous dose 20 mg/kg) was 27.6 min, the T1/2 ([1]; Intravenous dose 20 mg/kg, 20 mg/kg) was 19 min and 19.2 min and the “plasma concentration at 24 hr after dosing” value ([1]; intraperitoneal 20 mg/kg) was 18 ng/mL. The “time of maximum plasma level” value ([1]; intraperitoneal 20 mg/kg) was 30 min, the “plasma concentration at 30 min after dosing” value ([1]; intravenous 20 mg/kg) was 1040 ng/mL and the “plasma concentration at 30 min as share of that at 5 min” value ([1]; intravenous 20 mg/kg) was “about 15%”. For the same molecule, the “plasma concentration at 24 hr after dosing” value ([1]; intravenous 20 mg/kg) was 15 ng/mL and the “effect on Bcl-xL pore-forming activity” value (Bcl-xL(ΔC) WT) was “inhibited”.
In the case of antimycin A, the “ATP level, of control” value (TABX1A cells) is reported as “approximately 60%” and the “ATP level, of control” value (TABX2S cells) is reported as “approximately 60%”.
With `CCCC[C@H]1C(=O)OC(C)[C@H](NC(=O)c2cccc(NC=O)c2OC)C(=O)O[C@@H](C)C1OC(=O)CC(C)C` (some centres unmarked) [2-OMeA3, Antimycin A3 methyl ether] the “competition with antimycin A3 for Bcl-2” value [2] was “competition for the antimycin A3 binding site”.

From patent publication US20050239873A1 (priority 1999, published 2005)
